Data on two substances can be found in patent publication US20120020940A1, “ANTIMICROBIAL PEPTIDES” (Helmholtz Zentrum München Deutsches Forschungszentrum Für …, priority 2008, published 2012).

For series [1], the system named is Xanthomonas vesicatoria.
Series [2] relates to Pseudomonas syringae pv. tomato.
In series [3] the test system is Pseudomonas syringae pv. syringae.
For series [4], the system named is Alternaria alternata. The series is described as follows: MIC, antifungal in-vitro inhibition assay (Example 2). It is filed as cell-based. The settings on record: Table 1. How it is done: (§1) In-vitro inhibition assays were performed in sterile flat-bottom 96-well plates (Greiner bio-one, Frickenhausen). Antimicrobial peptides were dissolved in 0.01% acetic acid containing 0.2% BSA (500 μg/ml), filter sterilized and stored at −20° C. For inhibition assays dilutions of peptides ranging from 5 to 200 μg/ml were prepared and 10 μl (antibacterial assay) or 20 μl (antifungal assay) of each concentration was loaded per well.
(§2) Spores of fungi were collected by water washes of sporulating cultures grown on 2% malt extract agar and spore concentration was determined by microscopy. The concentration of the spores was adjusted to 1.5-2×10^3 spores/ml in 2% malt extract medium and 80 μl of fungal spores were added per well. The final peptide concentrations used in the fungal inhibition assays were […]. After overnight incubation at room temperature the plate were put on a rotary shaker (300 rpm) for further two days to ensure consistantly growth. Antifungal effects of the peptides were determined by a microplate reader (Alternaria, Fusarium) at OD590 nm or by visual screening of the plates (Botrytis, Cladosporium).
(§3) The lowest peptide concentration leading to complete inhibition of bacterial growth or spore germination/mycelial growth (minimal inhibition concentration, MIC) was determined for each organism-peptide combination. For each peptide concentration two identical inhibition assays were performed.

Series [5] relates to Cladosporium herbarum. Described as above. The format is cell-based. The settings on record: Table 1. How it is done:
as §1, §2, §3

In series [6] the test system is Botrytis cinerea. The description is as above. It is filed as cell-based. The settings on record: Table 1. How it is done: as §1, §2, §3
Series [7] concerns Xanthomonas vesicatoria. The series is described as follows: MIC and lethal concentration (Example 3). The format is cell-based. The settings on record: Table 2; for MIC (>90% inhibition): 1-2 days at 25° C.; for LC, lethal concentration (100% inhibition): at least 4 days of incubation. How it is done: as §1
(§4) Bacteria colonies from overnight agar plate cultures were resuspended into 5 ml LB-medium or HPG-medium (OD600 nm=0.08-0.1) and diluted into LB-medium/HPG-medium (1:100). 90 μl of this suspension containing about 10^5-10^6 CFU/ml of tested bacteria were added to each well resulting in final peptide concentrations of 0, 0.5, 1, 2, 5, 10, and 20 μg/ml. […] The lowest concentration, in which there is no observable growth (>90% inhibition) is referred to as minimal inhibitory concentration (MIC). […] For each peptide concentration two identical inhibition assays were performed.

The test system of series [8] is Clavibacter michiganensis. The series is described as follows: MIC and lethal concentration (Example 3). The format is cell-based. The settings on record: Table 2; for MIC (>90% inhibition): 1-2 days at 25° C.; for LC, lethal concentration (100% inhibition): at least 4 days of incubation. The protocol: as §1, §4
Series [9] has as its system Pseudomonas syringae pv. tomato. The series is described as follows: MIC and lethal concentration (Example 3). The format is cell-based. The settings on record: Table 2; for MIC (>90% inhibition): 1-2 days at 25° C.; for LC, lethal concentration (100% inhibition): at least 4 days of incubation. The protocol:
as §1, §4

For series [10], the system named is Pectobacterium carotovorum. The series is described as follows: MIC and lethal concentration (Example 3). It is filed as cell-based. The settings on record: Table 2; for MIC (>90% inhibition): 1-2 days at 25° C.; for LC, lethal concentration (100% inhibition): at least 4 days of incubation. How it is done: as §1, §4
Series [11] concerns Pseudomonas syringae pv. syringae. The series is described as follows: MIC and lethal concentration (Example 3). The settings on record: Table 2; for MIC (>90% inhibition): 1-2 days at 25° C.; for LC, lethal concentration (100% inhibition): at least 4 days of incubation. It is filed as cell-based. How it is done: as §1, §4
The test system of series [12] is Pseudomonas corrugata. The series is described as follows: MIC and lethal concentration (Example 3). The format is cell-based. The settings on record: Table 2; for MIC (>90% inhibition): 1-2 days at 25° C.; for LC, lethal concentration (100% inhibition): at least 4 days of incubation. The protocol: as §1, §4
The test system of series [13] is Pectobacterium carotovorum sub. carotovorum.
The subject of series [14] is Pseudomonas corrugata.
Series [15] has as its system Staphylococcus epidermidis. The format is cell-based. The protocol:
(§5) In-vitro inhibition assays were performed in sterile ELISA-plates (Greiner bio-one, Frickenhausen or Nunc, Wiesbaden). Antimicrobial peptides were dissolved in 0.01% acetic acid containing 0.2% BSA and stored at −20° C. […] After incubation for one day at 27° C. growth inhibition of the bacteria was analyzed by a ELISA microplate reader.

Series [16] has as its system Pseudomonas aeruginosa. It is filed as cell-based. The protocol:
as §5

Series [17] has as its system Klebsiella pneumoniae. The format is cell-based. How it is done:
as §5

Series [18] relates to Escherichia coli (DH5α). The format is cell-based. The settings on record: DH5α. How it is done:
as §5

In series [19] the test system is Yersinia enterocolitica. The format is cell-based. How it is done:
as §5

The test system of series [20] is Enterobacter cloacae. It is filed as cell-based. The protocol: as §5
The test system of series [21] is Klebsiiella oxytoca. It is filed as cell-based. The protocol:
as §5

Series [22] has as its system Staphylococcus aureus. The format is cell-based. How it is done: as §5
Series [23] relates to Clavibacter michiganensis sub. michiganensis. The settings on record: overnight 25° C., Table 1.
The subject of series [24] is HeLa cells. The series is described as follows: Cell viability, mitochondrial dehydrogenase activity. The format is cell-based. The settings on record: at the IC50 concentration (6.8 μM). The protocol: (§6) Antimicrobial oligopeptides were dissolved in 0.01% acetic acid containing 0.2% BSA (500 μg/ml), filter sterilized and stored at −20° C. […] (in 5% CO2). Afterwards, virus particles were added to the pre-treated HeLa cells and the infection was quantified by measuring red fluorescence with a fluorescence microplate reader after 72 h incubation. The viability of the HeLa cells was determined by measuring the activity of the mitochondrial dehydrogenase according to Lindl and Bauer (1994) and Mosmann (1983).

Series [25] relates to human immundeficiency virus (HIV). The format is cell-based. The settings on record: HeLa cells LC5-RIC pre-incubated 30 min with peptide, read after 72 h; read-out: IC50, concentration where the infection is decreased by 50% (compared to non-treated controls). The protocol: To measure the activity of the designed oligopeptides against human immundeficiency virus (HIV) a fluorescence-based reporter system was used. HeLa cells (LC5-RIC) harbour a reporter gene, which regulates in dependency of HIV Rev and Tat proteins the synthesis of a red fluorescing protein. In this way the infection of the HeLa cells (LC5-RIC) is indicated and the infection rate can be quantified using a fluorescence microplate reader.
as §6

No end group written: not given here. Some results are limits rather than exact numbers.

As to “LRFLKKILKHLF-NH2 [SP10, LRFLKKILKHLF -NH2]”, the “Minimal inhibition concentration (MIC) for complete inhibition of bacterial growth” value in [1] is 5 µg/mL; in series [2] it was 10 µg/mL; in series [3], 10 µg/mL; in series [13], 20 µg/mL; in [14], 20 µg/mL; in [23] it was 10 µg/mL. The “Minimal inhibition concentration (MIC) for complete inhibition of spore germination/mycelial growth” value in series [4] is over 100 µg/mL; in series [5] it was 10 µg/mL; in series [6] it was over 100 µg/mL. The “MIC (>90% inhibition)” value in series [7] was 0.5/0.5 μg/ml; in series [8], 0.5/0.5 μg/ml; in series [9], 2.5/2.5 μg/ml; in series [10], 1.0 µg/mL; in [11], 0.5 µg/mL; in series [12], 0.5 µg/mL. The “MIC (>90% inhibition)” value in series [15] turned out to be 2 µg/mL; in series [16] it was 10 µg/mL; in series [17], 20 µg/mL; in [18] it was 10 µg/mL; in series [19], 10 µg/mL; in [20], 20 µg/mL. Moreover, the “MIC (>90% inhibition)” value in [21] amounted to 20 µg/mL; in [22], 5 µg/mL. The “LC, lethal concentration (100% inhibition)” value in series [7] was 0.5/0.5 μg/ml; in series [8] it was 0.5/0.5 μg/ml; in [9], 2.5/2.5 μg/ml; in series [10], 2.5 µg/mL; in [11], 1.0 µg/mL; in series [12] it was 1.0 µg/mL.
As for LRKAKKIAKKLF-NH2 [SP10-11], the “negative/toxic effect on test cells (HeLa cells)” value in [24] is “No negative/toxic effect”. The “MIC (>90% inhibition)” value was 0.5 µg/mL in series [7]; 5.0/5.0 μg/ml in series [8]; 0.5/0.5 μg/ml in series [9]; >10/>10 μg/ml in [10]; 0.1 µg/mL in [11]; 0.5/0.5 μg/ml in series [12]. In addition, the “LC, lethal concentration (100% inhibition)” value in [7] was 1.0 µg/mL; in series [8] it was 5.0/5.0 μg/ml; in series [9], 0.5/0.5 μg/ml; in series [10], >10/>10 μg/ml; in [11] it was 0.25 µg/mL; in [12], 0.5/0.5 μg/ml. In series [25], the IC50 was determined as 6.8 µM.
